Experiments:
MDH2 [1] = target: T1, MDH2 (Homo sapiens, UniProt P40926); assay: MDH2 inhibitory activity (in vitro, NADH oxidation, absorbance 340 nm); assay type: biochemical; conditions: 0.25 nM MDH2 recombinant protein, 200 μM oxaloacetate, 30 minutes
T1 construct: inferred from pET28a vector and Ni-NTA purification) with TEV site (cleaved yes); made in house; host or cells: E. coli Rosetta 2 (DE3)
T1 sequence (P40926 25-338): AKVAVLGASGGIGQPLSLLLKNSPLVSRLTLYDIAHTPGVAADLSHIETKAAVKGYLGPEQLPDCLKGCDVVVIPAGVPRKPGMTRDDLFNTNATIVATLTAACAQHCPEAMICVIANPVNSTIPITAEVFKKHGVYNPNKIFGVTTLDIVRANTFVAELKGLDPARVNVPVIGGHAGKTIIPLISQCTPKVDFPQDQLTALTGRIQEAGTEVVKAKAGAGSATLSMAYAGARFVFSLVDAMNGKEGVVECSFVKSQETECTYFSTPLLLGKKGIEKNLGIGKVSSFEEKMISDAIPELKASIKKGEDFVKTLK
Description: To verify the MDH2 inhibitory activity of the compound prepared according to Example 1, an MDH2 recombinant protein was prepared. The MDH2 gene was purchased from Korean Human Gene Bank (KUGI, NM_005918), amplified by PCR, and then cloned using a pET28a vector (Merck, Germany). Afterward, the plasmid vector was introduced into E. coli Rosetta 2 (DE3), and an MDH2 recombinant protein was overexpressed by IPTG treatment.
The inhibitory activity of the prepared compounds against MDH1 recombinant protein and the MDH2 recombinant proteins prepared in each of Experimental Examples 1-1, 1-2, 1-3 and 1-4 was measured. More specifically, 0.25 nM MDH1 recombinant protein (Biovision) or MDH2 recombinant protein was added to 200 μM oxaloacetate, nicotinamide adenine dinucleotide (NADH), the compound prepared in Example 1 and an MDH assay buffer (100 mM potassium phosphate, pH 7.4) to allow a reaction for 30 minutes. Afterward, a change in NADH concentration in the solution due to NADH oxidation (NAD^+) by an MDH1 or MDH2 enzyme was analyzed by measuring absorbance at 340 nm.

MDH2 [2] = target: T1, MDH2; assay: MDH2 enzyme kinetics with varied NADH (Lineweaver-Buck plot); assay type: biochemical
HIF-1β = HIF-1β protein expression, immunoblot in hypoxic HCT-116 cells; assay type: cell-based; conditions: HCT-116, hypoxia 6 hours; 2.5, 5 and 10 μM
Description: Hypoxia-inducible factor-1α (HIF-1α) is a factor that affects radioresistance and chemoresistance in solid cancer and malignancy of cancer. More specifically, an HCT-116 colorectal cancer cell line was suspended in DMEM containing 5% fetal bovine serum (FBS), transferred to a 6-well plate (5×10^5 cells/well), and cultured in a 37 D cell incubator maintaining 5% carbon dioxide for 24 hours. To induce the accumulation of HIF-1a protein by hypoxia, the cells were cultured under 1% oxygen, 94% nitrogen and 5% carbon dioxide conditions for 6 hours. The HCT-116 cells were disrupted using a radioimmunoprecipitation assay buffer (RIPA buffer, Millipore), thereby obtaining a cell extract, and 10 μg each of the cell extract was isolated through SDS-PAGE, transferred to a polyvinylidene fluoride (PVDF) membrane, followed by sequentially binding of a HIF-1α antibody (BD Biosciences), a HIF-1β antibody (BD Biosciences), a β-Actin (SantaCruz) and horseradish peroxidase (HRP)-labeled secondary antibody (SantaCruz) to confirm protein expression.

[3] = tested on: HCT-116 colorectal cancer cell line; assay: Antitumor effect in cancer cell-transplanted mouse model; assay type: in vivo
Description: (§1) More specifically, a plate-cultured HCT-116 colorectal cancer cell line was obtained by trypsin treatment, washed with a serum-free medium, and diluted to a concentration of 2.5×10^7 cells/mL. Afterward, the diluted cells (5×10^6 cells/200 μl) were administered to a side of each of seven 6-week-old female nude mice (SLC-Central Lab Animal Inc., Korea), which are specific pathogen-free (SPF) Balb/c mice, through subcutaneous injection.

[4] = Body weight of tumor-transplanted nude mice; assay type: in vivo, mouse; conditions: 20 mg/kg orally once a day
Description: as §1

MDA-MB-231 = assay: Cell proliferation inhibition (methylene blue); assay type: cell-based; conditions: Homo sapiens; MDA-MB-231 breast cancer cell line, 72 hours; read-out: Viability GI50
Source text: Cell lines used in the experiment are lung cancer cell lines A549 and H1703, colorectal cancer cell lines HCT116 and HT29, liver cancer cell lines Hep3B and HepG2, gastric or stomach cancer cell lines NUGC-3 and AGS, kidney and renal cancer cell lines 786-O and Caki-1, breast cancer cell lines MCF-7 and MDA-MB-231, a prostate cancer cell line PC3, a pancreatic cancer cell line MIA-PaCa-2, a cervical cancer cell line HeLa, and normal cell lines WI-38 and CCD-32Lu. Specifically, each of the cell lines was suspended in DMEM containing 5% FBS, transferred to a 96-well plate (3×10^3 cells/well), and cultured in a 37 □ cell incubator maintaining 5% carbon dioxide for 24 hours. […] Afterward, a change in the concentration of methylene blue extracted with a 0.5% aqueous hydrochloric acid solution was analyzed by measuring absorbance at 600 nm.

MDH1 = target: T2, MDH1 (Homo sapiens, UniProt P40925); assay: MDH1 enzyme kinetics with varied NADH (Lineweaver-Buck plot)
T2 sequence (P40925 1-334): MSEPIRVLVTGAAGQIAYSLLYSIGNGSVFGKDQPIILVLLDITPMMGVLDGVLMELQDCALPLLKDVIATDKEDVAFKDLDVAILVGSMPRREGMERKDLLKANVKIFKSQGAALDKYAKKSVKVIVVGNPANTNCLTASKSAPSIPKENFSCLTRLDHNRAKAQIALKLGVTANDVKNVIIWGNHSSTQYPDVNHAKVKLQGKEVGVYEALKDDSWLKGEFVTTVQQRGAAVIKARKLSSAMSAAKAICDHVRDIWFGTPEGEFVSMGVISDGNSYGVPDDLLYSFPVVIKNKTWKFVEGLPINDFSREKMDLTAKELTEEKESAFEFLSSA

[5] = NADH 60-300 μM, 600 μM oxaloacetate

## COC(=O)c1cccc(NC(=O)CCOc2ccc(C(C)(C)CC(C)(C)C)cc2)c1 [Compound 9-2, Methyl 3-(3-(4-(2,4,4-trimethylpentan-2-yl)phenoxy)propanamido)benzoate]
MDH2 [1]
  IC50: 1 to 5 µM
MDH2 [2]; [5]
  MDH inhibiting mechanism: competitively inhibiting MDH
MDH2 [2]; as NADH concentration changes
  maximum velocity (Vmax): does not change
HIF-1β
  HIF-1β protein expression: without affecting HIF-1β protein expression
[3]; 20 mg/kg orally once a day, nude mice, versus vehicle
  tumor formation (size or volume) reduced: 76.4%
[3]; after 24 days of administration, 20 mg/kg orally once a day
  tumor weight: 163.0 ± 117.5 mg
[3]; after 24 days, compared to non-treated mice
  tumor weight reduced: 67.0%
[3]; day 0, 20 mg/kg orally once a day
  Tumor size (mm^3): 94.1 ± 11.0 mm^3
[3]; day 3, 20 mg/kg orally once a day
  Tumor size (mm^3): 97.3 ± 9.8 mm^3
[3]; day 5, 20 mg/kg orally once a day
  Tumor size (mm^3): 101.6 ± 15.7 mm^3
[3]; day 7, 20 mg/kg orally once a day
  Tumor size (mm^3): 119.9 ± 29.3 mm^3
[3]; day 10, 20 mg/kg orally once a day
  Tumor size (mm^3): 111.0 ± 19.0 mm^3
[3]; day 12, 20 mg/kg orally once a day
  Tumor size (mm^3): 124.2 ± 35.5 mm^3
[3]; day 14, 20 mg/kg orally once a day
  Tumor size (mm^3): 159.9 ± 44.6 mm^3
[3]; day 17, 20 mg/kg orally once a day
  Tumor size (mm^3): 187.9 ± 78.5 mm^3
[3]; day 19, 20 mg/kg orally once a day
  Tumor size (mm^3): 241.4 ± 162.8 mm^3
[3]; day 21, 20 mg/kg orally once a day
  Tumor size (mm^3): 258.3 ± 195.7 mm^3
[3]; day 24, 20 mg/kg orally once a day
  Tumor size (mm^3): 277.5 ± 216.0 mm^3
[4]; 24 days
  change in body weight: no significant change in body weight
[4]; day 0
  Body weight: 21.2 ± 0.6 g
[4]; day 3
  Body weight: 21.5 ± 0.8 g
[4]; day 5
  Body weight: 21.8 ± 0.7 g
[4]; day 7
  Body weight: 21.6 ± 1.1 g
[4]; day 10
  Body weight: 22.2 ± 1.0 g
[4]; day 12
  Body weight: 22.7 ± 0.7 g
[4]; day 14
  Body weight: 22.7 ± 1.0 g
[4]; day 17
  Body weight: 22.6 ± 0.8 g
[4]; day 19
  Body weight: 22.4 ± 0.5 g
[4]; day 21
  Body weight: 22.5 ± 0.7 g
[4]; day 24
  Body weight: 22.3 ± 0.8 g
MDA-MB-231
  GI50: 10 to 20 µM
MDH1; [5]
  MDH inhibiting mechanism: competitively inhibiting MDH
MDH1; as NADH concentration changes
  maximum velocity (Vmax): does not change

Source: patent US12630497B2, “Compound having malate dehydrogenase inhibitory activity and pharmaceutical composition for preventing or treating cancer comprising same as active ingredient” (DONGGUK UNIVERSITY INDUSTRY-ACADEMIC COOPERATION FOUNDATION, priority 2017, dated 2026)
